Measurements reported in ChEMBL document CHEMBL1177794, “Broad spectrum alkynyl inhibitors of T315I Bcr-Abl” (Bioorg Med Chem Lett, 2010).

What was measured:
[1] = target: G protein-coupled receptor kinase 4 (Homo sapiens) (UniProt P32298); assay: Inhibition of GRK4 at 10 uM; details: values are per cent of control
[2] = target: Serine/threonine-protein kinase Nek6 (Homo sapiens) (UniProt Q9HC98); assay: Inhibition of NEK6 at 10 uM
[3] = target: Receptor tyrosine-protein kinase erbB-4 (Homo sapiens) (UniProt Q15303); assay: Inhibition of ERBB4 at 10 uM; values are per cent of control
[4] = target: Proto-oncogene tyrosine-protein kinase ROS (Homo sapiens) (UniProt P08922); assay: Inhibition of ROS1 at 10 uM
[5] = target: Fibroblast growth factor receptor 2 (Homo sapiens) (UniProt P21802); assay: Inhibition of FGFR2 at 10 uM; details: values are per cent of control
[6] = tested on: Receptor-type tyrosine-protein kinase FLT3 (Homo sapiens), P36888 [D835Y]; assay: Inhibition of FLT3 D835Y mutant at 10 uM; details: values are per cent of control
[7] = tested on: Phosphatidylinositol 4,5-bisphosphate 3-kinase catalytic subunit alpha isoform (Homo sapiens), P42336 [H1047Y]; assay: Inhibition of PIK3CA H1047Y mutant at 10 uM
[8] = target: TGF-beta receptor type-2 (Homo sapiens) (UniProt P37173); assay: Inhibition of TGFBR2 at 10 uM
[9] = target: Ribosomal protein S6 kinase alpha-5 (Homo sapiens) (UniProt O75582); assay: Inhibition of RPS6KA5 N-terminal domain1 at 10 uM
[10] = target: Mitogen-activated protein kinase kinase kinase kinase 1 (Homo sapiens) (UniProt Q92918); assay: Inhibition of HPK1 at 10 uM; details: values are per cent of control
[11] = target: Casein kinase I isoform delta (Homo sapiens) (UniProt P48730); assay: Inhibition of CSNK1D at 10 uM; values are per cent of control
[12] = target: Hepatocyte growth factor receptor (Homo sapiens) (UniProt P08581); assay: Inhibition of MET at 10 uM
[13] = target: Serine/threonine-protein kinase SBK1 (Homo sapiens) (UniProt Q52WX2); assay: Inhibition of SBK1 at 10 uM
[14] = target: Cytoplasmic tyrosine-protein kinase BMX (Homo sapiens) (UniProt P51813); assay: Inhibition of BMX at 10 uM; details: values are per cent of control
[15] = Inhibition of FLT3 ITD mutant at 10 uM; details: values are per cent of control
[16] = target: Mitogen-activated protein kinase kinase kinase 1 (Homo sapiens) (UniProt Q13233); assay: Inhibition of MAP3K1 at 10 uM; details: values are per cent of control
[17] = target: Protein kinase C delta type (Homo sapiens) (UniProt Q05655); assay: Inhibition of PRKCD at 10 uM
[18] = target: Serine/threonine-protein kinase VRK2 (Homo sapiens) (UniProt Q86Y07); assay: Inhibition of VRK2 at 10 uM; details: values are per cent of control
[19] = target: Protein kinase C iota type (Homo sapiens) (UniProt P41743); assay: Inhibition of PRKCI at 10 uM
[20] = target: Serine/threonine-protein kinase MARK1 (Homo sapiens) (UniProt Q9P0L2); assay: Inhibition of MARK1 at 10 uM; details: values are per cent of control
[21] = target: Ribosomal protein S6 kinase beta-1 (Homo sapiens) (UniProt P23443); assay: Inhibition of S6K1 at 10 uM
[22] = target: Wee1-like protein kinase (Homo sapiens) (UniProt P30291); assay: Inhibition of WEE1 at 10 uM; details: values are per cent of control
[23] = tested on: Phosphatidylinositol 4,5-bisphosphate 3-kinase catalytic subunit alpha isoform (Homo sapiens), P42336 [H1047L]; assay: Inhibition of PIK3CA H1047L mutant at 10 uM
[24] = target: Calcium/calmodulin-dependent protein kinase kinase 2 (Homo sapiens) (UniProt Q96RR4); assay: Inhibition of CAMKK2 at 10 uM; details: values are per cent of control
[25] = target: Uncharacterized serine/threonine-protein kinase SBK3 (Homo sapiens) (UniProt P0C264); assay: Inhibition of SgK110 at 10 uM
[26] = target: Tyrosine-protein kinase Lck (Homo sapiens) (UniProt P06239); assay: Inhibition of LCK at 10 uM; values are per cent of control
[27] = target: Receptor tyrosine-protein kinase erbB-3 (Homo sapiens) (UniProt P21860); assay: Inhibition of ERBB3 at 10 uM; values are per cent of control
[28] = target: Tyrosine-protein kinase SYK (Homo sapiens) (UniProt P43405); assay: Inhibition of SYK at 10 uM
[29] = target: Tyrosine-protein kinase ABL1 (Homo sapiens) (UniProt P00519); assay: Inhibition of phosphorylated ABL1 at 10 uM; details: values are per cent of control
[30] = target: Ribosomal protein S6 kinase alpha-6 (Homo sapiens) (UniProt Q9UK32); assay: Inhibition of RSK4 C-terminal domain2 at 10 uM
[31] = target: Calcium/calmodulin-dependent protein kinase type 1D (Homo sapiens) (UniProt Q8IU85); assay: Inhibition of CAMK1D at 10 uM; details: values are per cent of control
[32] = target: Bone morphogenetic protein receptor type-2 (Homo sapiens) (UniProt Q13873); assay: Inhibition of BMPR2 at 10 uM; values are per cent of control
[33] = target: Mitogen-activated protein kinase kinase kinase 6 (Homo sapiens) (UniProt O95382); assay: Inhibition of ASK2 at 10 uM; details: values are per cent of control
[34] = target: Mitogen-activated protein kinase kinase kinase 10 (Homo sapiens) (UniProt Q02779); assay: Inhibition of MLK2 at 10 uM
[35] = target: Serine/threonine-protein kinase 10 (Homo sapiens) (UniProt O94804); assay: Inhibition of LOK at 10 uM; values are per cent of control
[36] = target: Testis-specific serine/threonine-protein kinase 1 (Homo sapiens) (UniProt Q9BXA7); assay: Inhibition of TSSK1B at 10 uM; details: values are per cent of control
[37] = target: Phosphatidylinositol 5-phosphate 4-kinase type-2 beta (Homo sapiens) (UniProt P78356); assay: Inhibition of PIP5K2B at 10 uM
[38] = target: Mitogen-activated protein kinase 9 (Homo sapiens) (UniProt P45984); assay: Inhibition of JNK2 at 10 uM; values are per cent of control
[39] = tested on: Phosphatidylinositol 4,5-bisphosphate 3-kinase catalytic subunit alpha isoform (Homo sapiens), P42336 [C420R]; assay: Inhibition of PIK3CA C420R mutant at 10 uM
[40] = target: Serine/threonine-protein kinase pim-1 (Homo sapiens) (UniProt P11309); assay: Inhibition of PIM1 at 10 uM
[41] = target: cAMP-dependent protein kinase catalytic subunit PRKX (Homo sapiens) (UniProt P51817); assay: Inhibition of PRKX at 10 uM
[42] = target: Fibroblast growth factor receptor 1 (Homo sapiens) (UniProt P11362); assay: Inhibition of FGFR1 at 10 uM; details: values are per cent of control
[43] = target: Cyclin-dependent kinase 19 (Homo sapiens) (UniProt Q9BWU1); assay: Inhibition of CDK11 at 10 uM; values are per cent of control

Chain of Receptor tyrosine-protein kinase erbB-4 (Homo sapiens) (Q15303 whole entry): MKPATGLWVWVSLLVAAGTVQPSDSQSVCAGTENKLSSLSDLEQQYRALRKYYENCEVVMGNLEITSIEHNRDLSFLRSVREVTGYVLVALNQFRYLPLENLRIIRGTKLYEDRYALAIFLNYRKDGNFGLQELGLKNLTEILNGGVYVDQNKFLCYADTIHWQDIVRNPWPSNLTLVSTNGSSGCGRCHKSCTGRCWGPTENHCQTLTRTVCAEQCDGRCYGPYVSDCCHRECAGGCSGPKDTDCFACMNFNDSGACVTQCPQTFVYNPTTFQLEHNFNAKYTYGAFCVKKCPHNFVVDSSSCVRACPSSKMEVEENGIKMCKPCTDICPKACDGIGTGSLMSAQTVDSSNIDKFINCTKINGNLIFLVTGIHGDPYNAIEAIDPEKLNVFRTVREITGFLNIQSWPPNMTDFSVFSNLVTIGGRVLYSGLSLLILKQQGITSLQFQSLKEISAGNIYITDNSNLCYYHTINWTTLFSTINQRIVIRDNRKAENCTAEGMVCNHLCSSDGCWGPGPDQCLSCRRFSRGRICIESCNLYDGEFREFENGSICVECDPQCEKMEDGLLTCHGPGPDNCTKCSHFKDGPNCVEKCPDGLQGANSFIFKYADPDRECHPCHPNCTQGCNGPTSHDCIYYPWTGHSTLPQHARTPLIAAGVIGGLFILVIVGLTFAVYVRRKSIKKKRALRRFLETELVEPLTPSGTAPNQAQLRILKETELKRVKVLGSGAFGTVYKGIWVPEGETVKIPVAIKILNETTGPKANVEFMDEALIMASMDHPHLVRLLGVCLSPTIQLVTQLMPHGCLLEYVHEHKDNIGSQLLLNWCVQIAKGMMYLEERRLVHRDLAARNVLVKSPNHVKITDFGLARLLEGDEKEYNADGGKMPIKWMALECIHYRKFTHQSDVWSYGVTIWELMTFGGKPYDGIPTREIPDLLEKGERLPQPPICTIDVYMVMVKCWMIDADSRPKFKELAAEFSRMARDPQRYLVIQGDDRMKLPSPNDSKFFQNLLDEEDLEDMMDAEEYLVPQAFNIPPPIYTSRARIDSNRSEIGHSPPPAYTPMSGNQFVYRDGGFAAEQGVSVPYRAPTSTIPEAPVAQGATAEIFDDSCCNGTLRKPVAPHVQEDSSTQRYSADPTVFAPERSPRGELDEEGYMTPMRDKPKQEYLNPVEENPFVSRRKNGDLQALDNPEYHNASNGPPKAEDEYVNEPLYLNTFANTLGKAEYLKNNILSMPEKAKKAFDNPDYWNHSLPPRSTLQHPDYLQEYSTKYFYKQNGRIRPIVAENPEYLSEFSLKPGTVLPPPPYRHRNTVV
Chain of Protein kinase C delta type (Homo sapiens) (Q05655 whole entry, looked up): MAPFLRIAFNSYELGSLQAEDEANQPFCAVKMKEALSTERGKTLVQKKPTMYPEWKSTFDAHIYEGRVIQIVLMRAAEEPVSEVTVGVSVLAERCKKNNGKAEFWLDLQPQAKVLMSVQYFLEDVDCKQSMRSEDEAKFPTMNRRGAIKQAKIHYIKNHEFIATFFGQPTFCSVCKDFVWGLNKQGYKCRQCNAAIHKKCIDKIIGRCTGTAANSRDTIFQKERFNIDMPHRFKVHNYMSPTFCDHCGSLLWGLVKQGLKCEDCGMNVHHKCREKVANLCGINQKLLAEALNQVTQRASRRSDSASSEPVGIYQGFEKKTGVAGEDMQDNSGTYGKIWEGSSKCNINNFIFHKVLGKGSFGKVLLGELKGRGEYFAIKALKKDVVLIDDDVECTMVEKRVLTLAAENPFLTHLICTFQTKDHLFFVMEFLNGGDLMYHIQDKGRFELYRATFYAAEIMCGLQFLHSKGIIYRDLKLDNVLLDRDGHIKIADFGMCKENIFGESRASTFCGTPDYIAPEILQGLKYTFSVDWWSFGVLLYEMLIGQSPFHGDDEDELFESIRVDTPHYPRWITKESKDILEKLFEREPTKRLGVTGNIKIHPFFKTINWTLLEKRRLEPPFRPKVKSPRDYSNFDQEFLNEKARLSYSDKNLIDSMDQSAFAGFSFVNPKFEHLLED
Chain of Wee1-like protein kinase (Homo sapiens) (P30291 whole entry, looked up, canonical isoform): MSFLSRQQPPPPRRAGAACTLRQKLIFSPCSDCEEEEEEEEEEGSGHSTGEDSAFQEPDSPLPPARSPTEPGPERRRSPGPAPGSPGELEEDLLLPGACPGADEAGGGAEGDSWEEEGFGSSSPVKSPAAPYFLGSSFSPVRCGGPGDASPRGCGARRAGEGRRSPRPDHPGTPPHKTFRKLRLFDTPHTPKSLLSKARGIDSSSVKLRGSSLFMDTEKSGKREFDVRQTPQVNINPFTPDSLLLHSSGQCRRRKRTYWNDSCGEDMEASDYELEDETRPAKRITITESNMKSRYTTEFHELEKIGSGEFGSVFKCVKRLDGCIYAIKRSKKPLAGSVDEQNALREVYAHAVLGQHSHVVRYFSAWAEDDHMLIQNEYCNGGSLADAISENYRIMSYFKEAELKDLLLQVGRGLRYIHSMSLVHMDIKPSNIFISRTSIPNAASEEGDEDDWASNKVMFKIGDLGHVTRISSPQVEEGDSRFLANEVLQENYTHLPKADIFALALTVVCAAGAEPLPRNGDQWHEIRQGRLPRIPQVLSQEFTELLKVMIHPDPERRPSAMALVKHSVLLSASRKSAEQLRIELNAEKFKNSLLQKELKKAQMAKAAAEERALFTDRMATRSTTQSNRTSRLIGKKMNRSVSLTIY
Chain of Mitogen-activated protein kinase 9 (Homo sapiens) (P45984 whole entry, looked up, canonical isoform): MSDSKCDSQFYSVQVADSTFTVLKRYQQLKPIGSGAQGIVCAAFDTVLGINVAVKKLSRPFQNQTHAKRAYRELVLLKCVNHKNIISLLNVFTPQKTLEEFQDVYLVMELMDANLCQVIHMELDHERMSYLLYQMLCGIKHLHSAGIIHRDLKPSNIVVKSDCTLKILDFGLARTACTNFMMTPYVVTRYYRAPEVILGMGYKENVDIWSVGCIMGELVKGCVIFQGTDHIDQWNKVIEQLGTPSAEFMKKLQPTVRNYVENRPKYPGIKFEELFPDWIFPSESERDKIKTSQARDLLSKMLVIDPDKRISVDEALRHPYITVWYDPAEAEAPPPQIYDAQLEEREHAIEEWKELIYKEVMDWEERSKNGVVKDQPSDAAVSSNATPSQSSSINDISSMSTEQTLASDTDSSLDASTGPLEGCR
Chain of Calcium/calmodulin-dependent protein kinase kinase 2 (Homo sapiens) (Q96RR4 2-588 limits assumed): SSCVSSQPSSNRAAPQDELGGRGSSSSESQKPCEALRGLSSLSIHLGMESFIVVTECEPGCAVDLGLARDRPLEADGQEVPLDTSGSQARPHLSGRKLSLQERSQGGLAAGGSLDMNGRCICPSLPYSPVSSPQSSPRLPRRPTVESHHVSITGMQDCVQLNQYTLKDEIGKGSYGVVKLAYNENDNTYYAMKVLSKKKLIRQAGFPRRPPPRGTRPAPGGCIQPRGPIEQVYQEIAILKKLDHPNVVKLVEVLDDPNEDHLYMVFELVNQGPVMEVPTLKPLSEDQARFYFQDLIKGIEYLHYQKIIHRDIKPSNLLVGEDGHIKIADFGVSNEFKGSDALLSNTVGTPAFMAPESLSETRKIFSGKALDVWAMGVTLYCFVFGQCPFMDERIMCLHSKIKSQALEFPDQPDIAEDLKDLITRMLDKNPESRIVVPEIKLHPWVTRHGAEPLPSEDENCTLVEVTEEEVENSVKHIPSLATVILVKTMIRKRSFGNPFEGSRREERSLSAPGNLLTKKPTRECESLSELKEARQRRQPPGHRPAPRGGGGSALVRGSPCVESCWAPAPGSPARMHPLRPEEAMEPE
Chain of cAMP-dependent protein kinase catalytic subunit PRKX (Homo sapiens) (P51817 whole entry): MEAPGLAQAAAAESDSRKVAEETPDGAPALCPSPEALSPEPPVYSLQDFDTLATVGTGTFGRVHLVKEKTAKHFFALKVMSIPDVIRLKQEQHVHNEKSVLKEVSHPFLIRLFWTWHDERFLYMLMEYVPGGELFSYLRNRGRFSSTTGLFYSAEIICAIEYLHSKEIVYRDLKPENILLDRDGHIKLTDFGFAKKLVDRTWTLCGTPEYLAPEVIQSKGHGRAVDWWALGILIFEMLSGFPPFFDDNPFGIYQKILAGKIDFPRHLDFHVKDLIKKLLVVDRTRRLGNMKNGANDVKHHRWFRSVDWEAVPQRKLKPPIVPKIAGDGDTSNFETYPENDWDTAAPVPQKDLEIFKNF
Chain of G protein-coupled receptor kinase 4 (Homo sapiens) (P32298 whole entry, looked up): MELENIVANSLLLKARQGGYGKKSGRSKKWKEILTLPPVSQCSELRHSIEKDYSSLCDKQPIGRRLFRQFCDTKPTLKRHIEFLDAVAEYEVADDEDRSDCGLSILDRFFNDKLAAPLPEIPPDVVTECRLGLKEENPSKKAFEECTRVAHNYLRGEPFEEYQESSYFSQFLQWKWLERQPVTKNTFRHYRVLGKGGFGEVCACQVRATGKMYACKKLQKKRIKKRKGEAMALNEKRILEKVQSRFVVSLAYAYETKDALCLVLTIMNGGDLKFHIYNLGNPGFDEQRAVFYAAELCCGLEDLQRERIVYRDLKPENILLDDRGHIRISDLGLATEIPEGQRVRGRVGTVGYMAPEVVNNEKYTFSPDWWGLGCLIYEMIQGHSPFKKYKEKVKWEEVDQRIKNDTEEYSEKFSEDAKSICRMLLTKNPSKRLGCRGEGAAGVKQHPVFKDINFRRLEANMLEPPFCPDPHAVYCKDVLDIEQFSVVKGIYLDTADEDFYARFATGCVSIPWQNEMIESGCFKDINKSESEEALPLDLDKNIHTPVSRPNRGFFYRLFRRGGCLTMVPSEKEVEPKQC
Chain of Serine/threonine-protein kinase Nek6 (Homo sapiens) (Q9HC98 whole entry): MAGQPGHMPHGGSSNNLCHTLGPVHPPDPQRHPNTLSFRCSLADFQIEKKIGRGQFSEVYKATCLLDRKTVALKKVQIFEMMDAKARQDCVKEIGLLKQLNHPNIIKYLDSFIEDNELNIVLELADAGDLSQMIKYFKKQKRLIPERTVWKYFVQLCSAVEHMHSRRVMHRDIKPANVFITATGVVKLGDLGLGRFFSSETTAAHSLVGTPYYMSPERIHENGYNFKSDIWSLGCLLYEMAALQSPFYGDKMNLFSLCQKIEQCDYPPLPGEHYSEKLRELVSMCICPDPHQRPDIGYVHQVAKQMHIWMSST

For CCN1CCN(Cc2ccc(NC(=O)c3ccc(C)c(C#Cc4cnc5[nH]ccc5c4)c3)cc2C(F)(F)F)CC1, the residual binding, % of control [1] was 14%, the inhibition [2] was 73% and the level, % of control [3] was 0.1%. The inhibition [4] was 34%, the residual binding, % of control [5] was 0.5% and the residual binding, % of control [6] was 0.85%. For the same compound, the inhibition [7] was 82%, the inhibition [8] was 1.4% and the inhibition [9] was 20%. For the same compound, the residual binding, % of control [10] was 0.05%, the level, % of control [11] was 22% and the inhibition [12] was 9.2%. The inhibition [13] was 87%, the residual binding, % of control [14] was 2.6% and the residual binding, % of control [15] was 0.15%. The residual binding, % of control [16] was 96%, the inhibition [17] was 24% and the residual binding, % of control [18] was 90%. It also gave an inhibition [19] of 40%, a residual binding, % of control [20] of 100% and an inhibition [21] of 3.2%. The residual binding, % of control [22] was 100%, the inhibition [23] was 100% and the residual binding, % of control [24] was 27%. For the same compound, the inhibition [25] was 42%, the level, % of control [26] was 0.1% and the level, % of control [27] was 89%. The inhibition [28] was 1%, the residual binding, % of control [29] was 0.05% and the inhibition [30] was 29%. For the same compound, the residual binding, % of control [31] was 68%, the level, % of control [32] was 61% and the residual binding, % of control [33] was 11%. The inhibition [34] was 9.5%, the level, % of control [35] was 0% and the residual binding, % of control [36] was 98%. The inhibition [37] was 7.7%, the level, % of control [38] was 0% and the inhibition [39] was 95%. It also gave an inhibition [40] of 100%, an inhibition [41] of 19% and a residual binding, % of control [42] of 0.15%. It also gave a level, % of control [43] of 4.2%.

Compound CCN1CCN(Cc2ccc(NC(=O)c3ccc(C)c(C#Cc4cccnc4)c3)cc2C(F)(F)F)CC1 has a residual binding, % of control [1] of 47%, an inhibition [2] of 90% and a level, % of control [3] of 1.8%. For the same compound, the inhibition [4] was 46%, the residual binding, % of control [5] was 0.5% and the residual binding, % of control [6] was 0.5%. It also gave an inhibition [7] of 81%, an inhibition [8] of 1.3% and an inhibition [9] of 59%. For the same compound, the residual binding, % of control [10] was 0.4%, the level, % of control [11] was 29% and the inhibition [12] was 73%. The inhibition [13] was 88%, the residual binding, % of control [14] was 2.7% and the residual binding, % of control [15] was 0.1%. It also gave a residual binding, % of control [16] of 94%, an inhibition [17] of 39% and a residual binding, % of control [18] of 95%. It also gave an inhibition [19] of 42%, a residual binding, % of control [20] of 83% and an inhibition [21] of 11%. For the same compound, the residual binding, % of control [22] was 100%, the inhibition [23] was 100% and the residual binding, % of control [24] was 7.8%. It also gave an inhibition [25] of 100%, a level, % of control [26] of 0.05% and a level, % of control [27] of 100%. It also gave an inhibition [28] of 13%, a residual binding, % of control [29] of 0% and an inhibition [30] of 6.8%. The residual binding, % of control [31] was 72%, the level, % of control [32] was 70% and the residual binding, % of control [33] was 12%. For the same compound, the inhibition [34] was 40%, the level, % of control [35] was 0% and the residual binding, % of control [36] was 92%. For the same compound, the inhibition [37] was 58%, the level, % of control [38] was 0% and the inhibition [39] was 72%. The inhibition [40] was 84%, the inhibition [41] was 3.6% and the residual binding, % of control [42] was 0.25%. The level, % of control [43] was 5%.
